# Measurements: patent US20230183248A1, “PYRROLO[1,2-D][1,2,4]TRIAZINE-2-YL-ACETAMIDES AS INHIBITORS OF THE NLRP3 INFLAMMASOME PATHWAY” (JANSSEN PHARMACEUTICA NV, priority 2020, published 2023)
# Assays:
# TNF = assay: PBMC assay: LPS-stimulated TNF cytokine levels; format: cell-based; conditions: human PBMCs, 30 min compound pre-incubation, 100 ng/ml LPS for 6 hrs, supernatant, MSD
# Description: (§1) Peripheral venous blood was collected from healthy individuals and human peripheral blood mononuclear cells (PBMCs) were isolated from blood by Ficoll-Histopaque (Sigma-Aldrich, A0561) density gradient centrifugation. After isolation, PBMCs were stored in liquid nitrogen for later use. Upon thawing, PBMC cell viability was determined in growth medium (RPMI media supplemented with 10% fetal bovine serum, 1% Pen-Strep and 1% L-glutamine). Compounds were spotted in a 1:3 serial dilution in DMSO and diluted to the final concentration in 30 µl medium in 96 well plates (Falcon, 353072). PBMCs were added at a density of 7.5 × 10^4 cells per well and incubated for 30 min in a 5% CO2 incubator at 37° C. LPS stimulation was performed by addition of 100 ng/ml LPS (final concentration, Invivogen, tlrl-smlps) for 6 hrs followed by collection of cellular supernatant and the analysis of IL-1β […] and TNF cytokines levels (µM) via MSD technology according to manufacturers’ guidelines (MSD, K151A0H).
# (§2) The IC50 values (for IL-1β) and EC50 values (TNF) were obtained on compounds of the invention/examples, and are depicted in the following table: […]
# IL-1β = assay: PBMC assay: LPS-stimulated IL-1β release; format: cell-based; conditions: human PBMCs, 30 min compound pre-incubation, 100 ng/ml LPS for 6 hrs, supernatant, MSD
# Description: as §1, §2
smiles,measurement,setting,value
"CC(C)c1nn(CC(=O)Nc2ccncn2)c(=O)c2cc(Br)cn12 [Compound 1F, 2-(7-bromo-4-isopropyl-1-oxo-pyrrolo[1,2-d][1,2,4]triazin-2-yl)-N-pyrimidin-4-yl-acetamide]",EC50,"TNF; Homo sapiens, PBMC",> 10 µM
same,IC50,"IL-1β; Homo sapiens, PBMC",0.71 µM
CC(C)c1nn(CC(=O)Nc2ccncc2F)c(=O)c2cc(Br)cn12 [Compound 2F],EC50,TNF,> 10 µM
same,IC50,IL-1β,1.26 µM
COCc1cc2c(=O)n(CC(=O)Nc3ccncn3)nc(C(C)C)n2c1 [Compound 3F],EC50,"TNF; Homo sapiens, PBMC",> 10 µM
same,IC50,"IL-1β; Homo sapiens, PBMC",7.85 µM
"CC(C)c1nn(CC(=O)Nc2ccncc2F)c(=O)c2cc(I)cn12 [Compound 4F, N-(3-fluoro-4-pyridyl)-2-(7-iodo-4-isopropyl-1-oxo-pyrrolo[1,2-d][1,2,4]triazin-2-yl)acetamide]",EC50,"TNF; Homo sapiens, PBMC",> 10 µM
same,IC50,"IL-1β; Homo sapiens, PBMC",0.25 µM
"CC(C)c1nn(CC(=O)Nc2ccncn2)c(=O)c2cc(I)cn12 [Compound 5F, 2-(7-iodo-4-isopropyl-1-oxo-pyrrolo[1,2-d][1,2,4]triazin-2-yl)-N-pyrimidin-4-yl-acetamide]",EC50,"TNF; Homo sapiens, PBMC",> 10 µM
CC(C)c1nn(CC(=O)Nc2ccncn2)c(=O)c2cc(Cl)cn12 [Compound 6F],EC50,"TNF; Homo sapiens, PBMC",> 10 µM
same,IC50,"IL-1β; Homo sapiens, PBMC",3.67 µM
CC(C)c1nn(CC(=O)Nc2cccnc2)c(=O)c2cc(Br)cn12 [Compound 8F],EC50,"TNF; Homo sapiens, PBMC",> 10 µM
same,IC50,"IL-1β; Homo sapiens, PBMC",4.24 µM
CC(C)c1nn(CC(=O)Nc2ccncc2F)c(=O)c2cc(Br)cn12 [Compound 10F],EC50,"TNF; Homo sapiens, PBMC",> 10 µM
same,IC50,"IL-1β; Homo sapiens, PBMC",0.89 µM
CC(C)c1nn(CC(=O)Nc2ccncn2)c(=O)c2cccn12 [Compound 11F],EC50,"TNF; Homo sapiens, PBMC",> 10 µM
same,IC50,"IL-1β; Homo sapiens, PBMC",> 10 µM
CC(C)c1nn(CC(=O)Nc2ccncn2)c(=O)c2cc(CO)cn12 [Compound 12F],EC50,"TNF; Homo sapiens, PBMC",> 10 µM
same,IC50,"IL-1β; Homo sapiens, PBMC",9.86 µM
C=Cc1cc2c(=O)n(CC(=O)Nc3ccncn3)nc(C(C)C)n2c1 [Compound 17F],EC50,"TNF; Homo sapiens, PBMC",> 10 µM
same,IC50,"IL-1β; Homo sapiens, PBMC",1.13 µM
CC(C)c1cc2c(=O)n(CC(=O)Nc3ccncc3F)nc(C(C)C)n2c1 [Compound 18F],EC50,"TNF; Homo sapiens, PBMC",> 10 µM
same,IC50,"IL-1β; Homo sapiens, PBMC",0.33 µM
CC(C)c1cc2c(=O)n(CC(=O)Nc3ccncn3)nc(C(C)C)n2c1 [Compound 19F],EC50,"TNF; Homo sapiens, PBMC",> 10 µM
same,IC50,"IL-1β; Homo sapiens, PBMC",0.35 µM
CCc1nn(CC(=O)Nc2ccncn2)c(=O)c2cc(C3CC3)cn12 [Compound 20F],EC50,"TNF; Homo sapiens, PBMC",> 10 µM
same,IC50,"IL-1β; Homo sapiens, PBMC",0.59 µM
CCc1nn(CC(=O)Nc2ccncc2F)c(=O)c2cc(C3CC3)cn12 [Compound 21F],EC50,"TNF; Homo sapiens, PBMC",> 10 µM
same,IC50,"IL-1β; Homo sapiens, PBMC",0.68 µM
CCc1cc2c(=O)n(CC(=O)Nc3ccncn3)nc(C(C)C)n2c1 [Compound 23F],EC50,"TNF; Homo sapiens, PBMC",> 10 µM
same,IC50,"IL-1β; Homo sapiens, PBMC",0.28 µM
CC(C)c1cc2c(=O)n(CC(=O)Nc3ccncn3)nc(N3CCOCC3)n2c1 [Compound 25F],EC50,"TNF; Homo sapiens, PBMC",> 10 µM
same,IC50,"IL-1β; Homo sapiens, PBMC",> 10 µM
"CC(C)c1nn(CC(=O)Nc2ccncn2)c(=O)c2cc(C3CCC3)cn12 [Compound 30F, 2-(7-cyclobutyl-4-isopropyl-1-oxo-pyrrolo[1,2-d][1,2,4]triazin-2-yl)-N-pyrimidin-4-yl-acetamide]",EC50,"TNF; Homo sapiens, PBMC",> 10 µM
same,IC50,"IL-1β; Homo sapiens, PBMC",0.99 µM
"COC(C)c1nn(CC(=O)Nc2ccncn2)c(=O)c2cc(C(C)C)cn12 (stereo not drawn) [Compound 31F, 2-[7-isopropyl-4-(1-methoxyethyl)-1-oxo-pyrrolo[1,2-d][1,2,4]triazin-2-yl]-N-pyrimidin-4-yl-acetamide]",EC50,"TNF; Homo sapiens, PBMC",> 10 µM
same,IC50,"IL-1β; Homo sapiens, PBMC",5.14 µM
"CC(C)c1nn(CC(=O)Nc2ccncc2F)c(=O)c2cc(C(F)(F)F)cn12 [Compound 32F, N-(3-fluoro-4-pyridyl)-2-[4-isopropyl-1-oxo-7-(trifluoromethyl)pyrrolo[1,2-d][1,2,4]triazin-2-yl]acetamide]",EC50,"TNF; Homo sapiens, PBMC",> 10 µM
same,IC50,"IL-1β; Homo sapiens, PBMC",1.5 µM
"CC(C)c1nn(CC(=O)Nc2ccncn2)c(=O)c2cc(CCC(F)(F)F)cn12 [Compound 33F, 2-[4-isopropyl-1-oxo-7-(3,3,3-trifluoropropyl)pyrrolo[1,2-d][1,2,4]triazin-2-yl]-N-pyrimidin-4-yl-acetamide]",EC50,"TNF; Homo sapiens, PBMC",> 10 µM
same,IC50,"IL-1β; Homo sapiens, PBMC",3.62 µM
"CC(C)Cc1cc2c(=O)n(CC(=O)Nc3ccncn3)nc(C(C)C)n2c1 [Compound 34F, 2-(7-isobutyl-4-isopropyl-1-oxo-pyrrolo[1,2-d][1,2,4]triazin-2-yl)-N-pyrimidin-4-yl-acetamide]",EC50,"TNF; Homo sapiens, PBMC",> 10 µM
same,IC50,"IL-1β; Homo sapiens, PBMC",3.84 µM
"CC(C)c1cc2c(=O)n(CC(=O)Nc3ccncn3)nc(C(C)(C)O)n2c1 [Compound 37F, 2-[4-(1-hydroxy-1-methyl-ethyl)-7-isopropyl-1-oxo-pyrrolo[1,2-d][1,2,4]triazin-2-yl]-N-pyrimidin-4-yl-acetamide]",EC50,"TNF; Homo sapiens, PBMC",> 10 µM
same,IC50,"IL-1β; Homo sapiens, PBMC",4.28 µM
"CC(C)c1nn(CC(=O)Nc2ccncn2)c(=O)c2cc(C(C)F)cn12 (stereo not drawn) [Compound 39F, 2-[7-(1-fluoroethyl)-4-isopropyl-1-oxo-pyrrolo[1,2-d][1,2,4]triazin-2-yl]-N-pyrimidin-4-yl-acetamide]",EC50,"TNF; Homo sapiens, PBMC",> 10 µM
same,IC50,"IL-1β; Homo sapiens, PBMC",4.31 µM
CCOC(C)c1nn(CC(=O)Nc2ccncn2)c(=O)c2cc(C(C)C)cn12 (stereo not drawn) [Compound 40F],EC50,"TNF; Homo sapiens, PBMC",> 10 µM
same,IC50,"IL-1β; Homo sapiens, PBMC",8.13 µM
CC(C)c1nn(CC(=O)Nc2ccncn2)c(=O)c2cc(C#N)cn12 [Compound 42F],EC50,"TNF; Homo sapiens, PBMC",> 10 µM
same,IC50,"IL-1β; Homo sapiens, PBMC",> 10 µM
"CC(C)c1nn(CC(=O)Nc2ccncn2)c(=O)c2cc(CN(C)C)cn12 [Compound 43F, 2-(7-((dimethylamino)methyl)-4-isopropyl-1-oxopyrrolo[1,2-d][1,2,4]triazin-2(1H)-yl)-N-(pyrimidin-4-yl)acetamide]",EC50,"TNF; Homo sapiens, PBMC",> 10 µM
same,IC50,"IL-1β; Homo sapiens, PBMC",> 10 µM
CNCc1cc2c(=O)n(CC(=O)Nc3ccncn3)nc(C(C)C)n2c1 [Compound 44F],EC50,"TNF; Homo sapiens, PBMC",> 10 µM
same,IC50,"IL-1β; Homo sapiens, PBMC",> 10 µM
CC(C)c1cc2c(=O)n(CC(=O)Nc3ccncn3)nc(C3CNC3)n2c1 [Compound 45F],EC50,"TNF; Homo sapiens, PBMC",> 10 µM
same,IC50,"IL-1β; Homo sapiens, PBMC",> 10 µM
CC(=O)N1CC(c2nn(CC(=O)Nc3ccncn3)c(=O)c3cc(C(C)C)cn23)C1 [Compound 46F],EC50,"TNF; Homo sapiens, PBMC",> 10 µM
same,IC50,"IL-1β; Homo sapiens, PBMC",> 10 µM
CC(C)c1nn(CC(=O)Nc2ccncc2F)c(=O)c2cc(F)cn12 [Compound 52F],EC50,"TNF; Homo sapiens, PBMC",> 10 µM
same,IC50,"IL-1β; Homo sapiens, PBMC",> 10 µM
COc1nn(CC(=O)Nc2ccncn2)c(=O)c2cc(C(C)C)cn12 [Compound 53F],EC50,"TNF; Homo sapiens, PBMC",> 10 µM
same,IC50,"IL-1β; Homo sapiens, PBMC",1.37 µM
same,IC50,IL-1β,1.88 µM
CCCc1cc2c(=O)n(CC(=O)Nc3ccncn3)nc(OC)n2c1 [Compound 54F],EC50,"TNF; Homo sapiens, PBMC",> 10 µM
same,IC50,"IL-1β; Homo sapiens, PBMC",2.51 µM
CC(C)c1cc2c(=O)n(CC(=O)Nc3ccncn3)nc(N(C)CC3CC3)n2c1 [Compound 57F],EC50,"TNF; Homo sapiens, PBMC",> 10 µM
same,IC50,"IL-1β; Homo sapiens, PBMC",1.66 µM
CCCCc1nn(CC(=O)N[C@H]2C[C@@](C)(O)C2)c(=O)c2cc(C(C)C)cn12 [Compound 60F],EC50,"TNF; Homo sapiens, PBMC",> 10 µM
same,IC50,"IL-1β; Homo sapiens, PBMC",1.47 µM
CC(C)c1cc2c(=O)n(CC(=O)N[C@H]3C[C@@](C)(O)C3)nc(C(C)OC3CC3)n2c1 (stereo partly drawn) [Compound 62F],EC50,"TNF; Homo sapiens, PBMC",> 10 µM
same,IC50,"IL-1β; Homo sapiens, PBMC",2.23 µM
COc1nn(CC(=O)NC2CCOCC2)c(=O)c2cc(C(C)C)cn12 [Compound 66F],EC50,"TNF; Homo sapiens, PBMC",> 10 µM
same,IC50,"IL-1β; Homo sapiens, PBMC",5.04 µM
CC(C)c1cc2c(=O)n(CC(=O)N[C@@H]3CCCN(C4CCC4)C3)nc(C(C)C)n2c1 [Compound 67F],EC50,"TNF; Homo sapiens, PBMC",> 10 µM
CC(C)c1cc2c(=O)n(CC(=O)Nc3ccc4nncn4c3)nc(C(C)C)n2c1 [Compound 69F],IC50,"IL-1β; Homo sapiens, PBMC",0.28 µM
"CC(=O)N(C)Cc1cc2c(=O)n(CC(=O)Nc3ccncn3)nc(C(C)C)n2c1 [Compound 70F, N-((4-isopropyl-1-oxo-2-(2-oxo-2-(pyrimidin-4-ylamino)ethyl)-1,2-dihydropyrrolo[1,2-d][1,2,4]triazin-7-yl)methyl)-N-methylacetamide]",EC50,"TNF; Homo sapiens, PBMC",> 10 µM
same,IC50,"IL-1β; Homo sapiens, PBMC",> 10 µM
CC(C)c1nn(CC(=O)Nc2ccc3nncn3c2)c(=O)c2cc(I)cn12 [Compound 71F],EC50,"TNF; Homo sapiens, PBMC",19.8 µM
same,EC50,TNF,> 10 µM
same,IC50,"IL-1β; Homo sapiens, PBMC",0.14 µM
same,IC50,IL-1β,0.26 µM
CC(C)c1nn(CC(=O)N[C@H]2C[C@@](C)(O)C2)c(=O)c2cc(I)cn12 [Compound 72F],EC50,"TNF; Homo sapiens, PBMC",> 10 µM
same,IC50,"IL-1β; Homo sapiens, PBMC",0.24 µM
CC(C)c1nn(CC(=O)Nc2ccncn2)c(=O)c2cc(Cc3ccccc3)cn12 [Compound 75F],EC50,"TNF; Homo sapiens, PBMC",> 10 µM
same,IC50,"IL-1β; Homo sapiens, PBMC",> 10 µM
CC(C)c1nn(CC(=O)Nc2ccncn2)c(=O)c2cc(CC3CC(=O)N(C)C3)cn12 (stereo not drawn) [Compound 81F],IC50,"IL-1β; Homo sapiens, PBMC",> 10 µM
